In US11312715B2, “Fused ring derivative as A2A receptor inhibitor” (CSTONE PHARMACEUTICALS (SUZHOU) CO., LTD., priority 2017, dated 2022):

Experiments:
[1] = molecular target: T1, Human Adenosine A2a Receptor (Homo sapiens, UniProt P29274); experiment: Human adenosine A2a receptor calcium flow detection experiment (FLIPR, Fluo-4, NECA agonist); type: cell-based; settings: A2a stable CHO cell line, antagonist mode vs NECA at EC80
T1 construct: host or cells: CHO
Description: Human Adenosine A2a Receptor Calcium Flow Detection Experiment
A2a stable cell line was constructed by Shanghai Wuxi Apptec, and the host cell was CHO.
Fluo-4 Direct kit (Invitrogen, article number: F10471). After the fluorescence detection reagent (specifically binding to calcium ions and causing an increase of fluorescence signal) in the kit was incubated with the cells for an appropriate time, the compound was added to stimulate the cells and induced changes in intracellular calcium flow, thus causing the changes in fluorescence signal, which can reflect the intensity of the agonistic or inhibiting activity of the compounds.
F12+10% fetal bovine serum+geneticin 300 μg/mL+blasticidin 2 μg/mL
Hanks balanced salt buffer (Invitrogen)+20 mM HEPES, which was prepared before each use
The compounds to be tested were dissolved in DMSO to prepare a 10 mM mother liquor. The test compound was diluted to 0.2 mM with DMSO, and the reference compound CGS-15943 was diluted to 0.015 mM with DMSO. Then a 10-point 3-fold serial dilution was performed with ECHO, then 900 nL of the dilutions was transferred to a compound plate (Greiner-781280), and 30 μL of the compound dilution buffer was added. The final initial concentration of the compounds to be tested was 1 μM and that of CGS-15943 was 0.075 μM.
Frozen A2A cells were suspended to 1×10^6 cells/mL with the culture medium after resuscitation, seeded with 20 μL/well into a 384-well polylysine coated cell plate (Greiner-781946), then incubated under 5% CO2 at 37° C. overnight.
The cell plate prepared the day before was taken out from the incubator, 20 μL 2×Fluo-4 Direct™ buffer was added into each cell, then incubated under 5% CO2 at 37° C. in an incubator for 50 minutes, and was allowed to stand at room temperature for 10 minutes.
Dilution of the agonist NECA: NECA with an initial concentration of 0.15 mM was 3-fold serially diluted with Echo to prepare 10 dilutions, and then 900 nL of the dilutions was transferred to the corresponding compound plate; then 30 μL of the compound dilution buffer was added into the corresponding compound plate. The final initial concentration was 750 nM.
FLIPR instrument and software were performed according to the set program, 10 μL of the compound dilution buffer was added into the cell plate, and the fluorescence signal was read. 10 μL of the agonist reference compound with a predetermined concentration was added to the cell plate and the fluorescence signal was read. After reading, the data were exported by “Max-Min” and “Read 90 to Maximum allowed” methods in the software, the EC80 on A2A cell line was calculated, and 6×EC80 concentration of agonist was prepared. The agonist reference compound with a concentration of 6×EC80 was prepared with buffer salt solution, and 30 μL/well was aliquoted into the corresponding compound plate for later use.
FLIPR instrument and software were performed according to the set program, 10 μL of test compounds and reference compound with a predetermined concentration was added into the cell plate, and the fluorescence signal was read. 10 μL of the agonist reference compound with a concentration of 6×EC80 was added into the cell plate and the fluorescence signal was read. For the agonist detection of the compounds, the data were exported by “Max-Min” and “Read 1 to 90” methods in the software. For the antagonist detection of the compounds, the data were exported by “Max-Min” and “Read 90 to Maximum allowed” methods in the software. The data were analyzed by GraphPad Prism 5.0 and the IC50 value of the test compounds was calculated.

[2] = Pharmacokinetic evaluation after single intravenous injection and single oral administration in mice; type: in vivo; settings: mouse, female Balb/C mice, plasma, single IV / single PO study; for bioavailability: read-out: Bioavailability F; for clearance: read-out: Clearance rate; for AUC: read-out: Concentration integral AUC; for half-life: read-out: Half-life T1/2 (converted)
Description: Experimental materials: Balb/C mice (female, 15-30 g, 7-9 weeks old, Shanghai Linchang) were used.
Experimental method: The pharmacokinetic characteristics of the compound after intravenous injection and oral administration were tested on rodents by standard scheme, in the experiment, the candidate compounds were prepared into clear solutions and administrated to mice by single intravenous injection and single oral administration. Intravenous injection (IV) menstruum was a mixed solvent of 5% DMSO/5% polyethylene glycol hydroxystearate/90% water, and oral (PO) menstruum was a mixed solvent of 1% Tween 80, 9% PEG400 and 90% water (pH=3). The whole blood sample within 48 hours was collected, centrifuged at 3000 g at 4° C. for 15 minutes, and the supernatant was separated to obtain the plasma sample. An acetonitrile solution containing internal standard with a volume of 20 times that of the plasma sample was added to precipitate protein, the supernatant was centrifuged and an equal volume of water was added, then the supernatant was taken for injection. The blood drug concentration was quantitatively analyzed by LC-MS/MS analysis method, and the pharmacokinetic parameters such as peak concentration, peak time, clearance rate, half-life, area under the drug concentration-time curve, bioavailability, etc. were calculated.

[3] = tested on: mouse colon cancer CT26 cells; experiment: In vivo pharmacodynamic test, CT26 subcutaneous tumor model, alone or combined with CS1003; set-up: species or system BALB/C mice; settings: CS1003 1 mg/kg intraperitoneal, Day 7, 10, 13, 16
Description: Experimental materials: BALB/C mice (female); mouse colon cancer CT26 cells (Typical Culture Preservation Commission cell bank, Chinese Academy of Sciences) were cultured in vitro in monolayer with RPMI-1640 medium containing 10% fetal bovine serum in a 37° C., 5% CO2 incubator. Trypsin-EDTA was used for routine digestion and passage. When the cells were in exponential growth phase and the saturation was 80%-90%, the cells were collected and counted.
Compound preparation: Embodiment 19 was weighted and added into the menstruum (10% PEG400+90% (10% Cremophor aqueous solution)) to prepare samples of 2.5 mg/mL, 5 mg/mL and 10 mg/mL respectively. 72 μL CS1003 (PD-1 antibody) solution (25 mg/mL) was taken and 1.728 mL Dulbecco's phosphate buffer (DPBS) was added to prepare a 1 mg/mL solution, then 16.2 mL DPBS was added to prepare a 0.1 mg/mL clear solution.
Experimental operation: the cells were resuspended in Dulbecco's phosphate buffer at a density of 3×10^6 cells/mL. 0.1 mL DPBS (containing 3×10^5 CT26 cells) was subcutaneously inoculated on the right back of each mouse. On the day of inoculation, the mice were randomly divided into groups with 9 mice each group according to the weight of the mice, then administration was started and continued for 20 days. During the whole experiment, the animals were weighed and the animal's health was monitored every day, in case of any special situation, the person in charge of the relevant project would be informed in time and the corresponding records would be made. Tumor diameter was measured twice a week with a vernier caliper. The calculation formula of the tumor volume was: V=0.5×a×b^2, wherein a and b represent the long and short diameters of the tumor respectively.
The antitumor effect of the compounds was evaluated by GI (%) or relative tumor proliferation rate T/C (%). Relative tumor proliferation rate T/C (%)=Vt/VC×100% (Vt: average tumor volume of treatment group; Vc: average tumor volume of negative control group). Vt and VC were the data on the same day. GI (%), tumor inhibition rate. GI (%)=1−Vt/VC×100%.
Statistical analysis was conducted using SPSS software based on the relative tumor volume and tumor weight at the end of the experiment. […] P<0.05 was considered as significant difference.

T1 sequence (P29274 whole entry): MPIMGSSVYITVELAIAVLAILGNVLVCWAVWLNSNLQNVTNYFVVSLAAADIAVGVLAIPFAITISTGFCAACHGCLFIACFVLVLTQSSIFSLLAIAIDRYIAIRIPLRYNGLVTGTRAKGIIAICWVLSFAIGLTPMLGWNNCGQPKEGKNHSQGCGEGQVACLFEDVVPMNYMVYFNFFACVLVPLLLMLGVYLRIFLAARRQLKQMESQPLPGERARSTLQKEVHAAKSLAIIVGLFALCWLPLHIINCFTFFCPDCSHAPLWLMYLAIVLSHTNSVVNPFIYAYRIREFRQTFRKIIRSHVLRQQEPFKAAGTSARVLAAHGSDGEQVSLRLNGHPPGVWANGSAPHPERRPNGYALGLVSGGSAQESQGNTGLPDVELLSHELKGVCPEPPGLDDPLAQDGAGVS

Row | IC50 [1] [nM] | Molecule | further results
1 | 6.1 | Nc1ncc2cc(-c3c(-c4ccc(F)cc4)nc(N)c4nccnc34)ccc2n1 [Embodiment 16] | 
2 | 15.6 | Nc1nc(-c2ccc(F)cc2)c(-c2ccc3nncn3c2)c2nccnc12 [Embodiment 9] | 
3 | 27.8 | Nc1nc(-c2ccc(F)cc2)c(-c2ccc3nccnc3c2)c2nccnc12 [Embodiment 5] | 
4 | 9.4 | Nc1nc(-c2ccc(F)cc2)c(-c2ccc3nnccc3c2)c2nccnc12 [Embodiment 13] | 
5 | 0.92 | Nc1nc(-c2ccc(F)cc2)c(-c2ccc3ncccc3c2)c2nccnc12 [Embodiment 4] | 
6 | 0.8 | Nc1nc(-c2ccc(F)cc2)c(-c2cc(F)c3ncccc3c2)c2nccnc12 [Embodiment 17] | 
7 | 0.76 | Nc1nc(-c2ccc(F)cc2)c(-c2ccc3ncncc3c2)c2nccnc12 [Embodiment 14] | 
8 | 0.95 | Nc1nc(-c2ccc(F)cc2)c(-c2ccc3ncsc3c2)c2nccnc12 [Embodiment 23] | 
9 | 3.32 | Nc1nc(-c2ccc(F)cc2)c(-c2ccc3[nH]ncc3c2)c2nccnc12 [Embodiment 20] | 
10 | 78.8 | Nc1nc(-c2ccc(F)cc2)c(-c2ccc3cnccc3c2)c2nccnc12 [Embodiment 18] | 
11 | 0.92 | Nc1nc(-c2ccc(F)cc2)c(-c2cc(Cl)c3ncccc3c2)c2nccnc12 [Embodiment 26] | 

The next lines start with the molecule.

Row | Molecule | IC50 [1] [nM] | further results
12 | Nc1nc(-c2ccc(F)cc2)c(-c2ccn3ncnc3c2)c2nccnc12 [Embodiment 7] | 31.4 | 
13 | Cc1cc(-c2c(-c3ccc(F)cc3)nc(N)c3nccnc23)cc(C)n1 [Embodiment 1] | 4.77 | bioavailability [2]: 57.6%; clearance [2]: 16.5 mL/min/kg; AUC [2]: 16.7 µM·h; half-life [2]: 36 min
14 | Cc1ccc(-c2nc(N)c3nccnc3c2-c2ccc3ncnn3c2)o1 [Embodiment 31] | 0.58 | 
15 | Nc1nc(-c2ccccc2)c(-c2ccc3ncnn3c2)c2ncccc12 [Embodiment 27] | 0.56 | 
16 | Cc1cc(-c2c(-c3ccc(F)cc3)nc(N)c3nccnc23)cc(C(F)(F)F)n1 [Embodiment 10] | 9.2 | 
17 | Nc1nc(-c2ccc(F)cc2)c(-c2cc(Cl)c3ncnn3c2)c2nccnc12 [Embodiment 34] | 1.04 | 
18 | Nc1nc(-c2ccc(Cl)o2)c(-c2ccc3ncnn3c2)c2nccnc12 [Embodiment 30] | 0.35 | 
19 | Cc1cc(-c2c(-c3ccc(F)cc3)nc(N)c3nccnc23)cc(Cl)n1 [Embodiment 2] | 1.73 | bioavailability [2]: 76.2%; clearance [2]: 17.1 mL/min/kg; AUC [2]: 20.3 µM·h; half-life [2]: 46.8 min
20 | Nc1nc(-c2ccc(F)cc2)c(-c2ccc3[nH]nc(Cl)c3c2)c2nccnc12 [Embodiment 22] | 38 | 
21 | Cn1ccc(-c2nc(N)c3nccnc3c2-c2ccc3ncnn3c2)n1 [Embodiment 29] | 3.18 | 
22 | Nc1nc(-c2ccc(F)cc2)c(-c2ccc3ncnn3c2)c2nccnc12 [Embodiment 6] | 1.14 | clearance [2]: 5.87 mL/min/kg; AUC [2]: 24.1 µM·h; half-life [2]: 49.2 min
23 | Nc1nc(-c2ccc(F)cc2)c(-c2ccc3nccn3c2)c2nccnc12 [Embodiment 19] | 0.54 | 
24 | Cc1cc(-c2c(-c3ccc(F)cc3)nc(N)c3cncnc23)cc(Cl)n1 [Embodiment 25] | 0.89 | 
25 | Cc1cc(-c2c(-c3ccc(F)cc3)nc(N)c3cccnc23)cc(Cl)n1 [Embodiment 11] | 1.79 | 
26 | Cc1cc(-c2c(-c3ccc(F)cc3)nc(N)c3ncccc23)cc(Cl)n1 [Embodiment 24] | 5.52 | 
27 | Nc1nc(-c2ccc(F)cc2)c(-c2ccc3ncnn3c2)c2ncccc12 [Embodiment 12] | 1.56 | bioavailability [2]: 95.4%; clearance [2]: 1.72 mL/min/kg; AUC [2]: 259 µM·h; half-life [2]: 197 min
28 | Nc1nc(-c2ccc(F)cc2)c(-c2cc(Cl)nc(C(F)(F)F)c2)c2nccnc12 [Embodiment 3] | 9.46 | bioavailability [2]: 69%; clearance [2]: 18.1 mL/min/kg; AUC [2]: 15.7 µM·h; half-life [2]: 83.4 min
29 | Cc1cc(-c2c(-c3ccc(Cl)cc3)nc(N)c3nccnc23)cc(Cl)n1 [Embodiment 15] | 3.84 | 
30 | Cc1cc(-c2c(-c3ccc(C)o3)nc(N)c3nccnc23)cc(Cl)n1 [Embodiment 28] | 1.03 | 
31 | Nc1nc(-c2ccc(F)cc2)c(-c2cc(Cl)c3[nH]ncc3c2)c2nccnc12 [Embodiment 21] | 0.82 | 
32 | Nc1nc(-c2ccc(Cl)s2)c(-c2ccc3ncnn3c2)c2nccnc12 [Embodiment 32] | 1.8 | 
33 | Nc1nc(-c2ccc(F)cc2)c(-c2ccc3c(c2)CCCN3)c2nccnc12 [Embodiment 8] | 26.8 | 
34 | Cc1cc(-c2c(-c3ccc(Cl)s3)nc(N)c3nccnc23)cc(Cl)n1 [Embodiment 33] | 24 | 
35 | CS1003: full-length, fully humanized immunoglobulin G4 (IgG4) monoclonal antibody for PD-1 (antibody, chains of the INN, looked up, V domains shown) VH: QVQLVQSGAEVKKPGSSVKVSCKASGFTFTTYYISWVRQAPGQGLEYLGYINMGSGGTNYNEKFKGRVTITADKSTSTAYMELSSLRSEDTAVYYCAIIGYFDYWGQGTMVTVSS VL: DVVMTQSPLSLPVTLGQPASISCRSSQSLLDSDGGTYLYWFQQRPGQSPRRLIYLVSTLGSGVPDRFSGSGSGTDFTLKISRVEAEDVGVYYCMQLTHWPYTFGQGTKLEIK |  | tumor volume ([3]; 20th day after starting administration): 487.34+109.07 mm^3; tumor inhibition rate ([3]; 20th day, no significant difference vs control): 42.47%
